The structures appear in SMILES notation. Where a name gives a salt, the structure may show the parent alone.

The test system of this assay is ethanol hydrochloric acid ulcer. Put plainly: Inhibitory activity against ethanol hydrochloric acid ulcer. Type of assay: in vivo. The settings on record: SD male rats fasted 24 hours; 30mg/kg orally, one hour before 150 mM hydrochloric acid in 60% ethanol; ulcer index = total lesion length, one hour later. Here is the method: To SD male rats (weighing 150-250 g) fasted for 24 hours was administered orally a thiazole derivative of the invention. One hour later, a hydrochloric acid solution in ethanol (containing 150 mM hydrochloric acid in 60% ethanol) was orally given in a volume of 0.5 ml/100 g bodyweight.
One hour later, the animals were sacrificed with ether. The stomach was excised and, after formalin treatment, measured for the length (mm) of lesions developed in glandular portions of the stomach. Total length of the lesions per animal was taken as ulcer index.
Percent inhibition of ulceration as referred to in the table is a value obtained by reducing from 1 the ulcer index for the rat with a thiazole derivative of the invention orally given divided by the ulcer index for the orally non-administered rat and multiplying the value by 100. The calculation is conducted by the formula shown below. [formula]
For `c1ccc(Nc2nc3cccnc3s2)cc1` [Example 2, 2-phenylamino[5,4-b]pyridothiazole hydrochloride], the “Percent inhibition of ulceration (%)” value was 88.8%. Turning to `CN(C)c1ccc(Nc2nc3cccnc3s2)cc1` [Example 4, 2-(4-dimethylaminophenyl)amino[5,4-b]pyridothiazole hydrochloride], the “Percent inhibition of ulceration (%)” value is recorded as 45.5%. In the case of `COc1ccc(Nc2nc3cccnc3s2)cc1` [Example 5, 2-(4-methoxyphenyl)-amino[5,4-b]pyridothiazole hydrochloride], the “Percent inhibition of ulceration (%)” value is 51.2%. Turning to `CNc1nc2cccnc2s1` [Example 1, 2-methylamino[5,4-b]pyridothiazole hydrochloride], the “Percent inhibition of ulceration (%)” value worked out at 100.0%.

On to `c1ccc(CNc2nc3cccnc3s2)cc1` [Example 3, 2-benzylamino[5,4-b]pyridothiazole hydrochloride], for which the “Percent inhibition of ulceration (%)” value amounted to 87.2%.

Source of the values: patent EP0426574A1, “Thiazole derivatives and antiulcer agents containing the same” (TERUMO KABUSHIKI KAISHA, priority 1989, dated 1991).
